From the NIST ThermoML archive (doi:10.1016/j.jct.2008.06.011)
Several values for one entry are separate records, joined by “and”; a condition that tells them apart may be missing. Equal values may be shown once. Numbers after ± are expanded uncertainties.

Conditions: Crystal, Calculated from knudsen effusion weight loss

NNC(=O)c1ccco1 [2-furoic acid hydrazide]
Conditions	vapor or sublimation pressure
309.15 K	0.0001487 ± 7.5e-06 kPa and 0.0001459 ± 7.3e-06 kPa and 0.0001436 ± 7.2e-06 kPa
311.15 K	0.0001928 ± 9.7e-06 kPa and 0.0001919 ± 9.6e-06 kPa and 0.0001872 ± 9.4e-06 kPa
313.14 K	0.0002436 ± 1.2e-05 kPa and 0.0002335 ± 1.2e-05 kPa and 0.0002348 ± 1.2e-05 kPa
315.14 K	0.0003144 ± 1.6e-05 kPa and 0.0003082 ± 1.6e-05 kPa and 0.0003114 ± 1.6e-05 kPa
317.13 K	0.0003943 ± 2e-05 kPa and 0.0003803 ± 1.9e-05 kPa and 0.0003744 ± 1.9e-05 kPa
319.15 K	0.0005068 ± 2.5e-05 kPa and 0.0004916 ± 2.5e-05 kPa and 0.0004795 ± 2.4e-05 kPa
321.14 K	0.0006091 ± 3e-05 kPa and 0.0006111 ± 3.1e-05 kPa and 0.0005851 ± 2.9e-05 kPa
323.16 K	0.0007862 ± 3.9e-05 kPa and 0.0007814 ± 3.9e-05 kPa and 0.0007812 ± 3.9e-05 kPa
325.15 K	0.0009687 ± 4.8e-05 kPa and 0.0009579 ± 4.8e-05 kPa and 0.0009504 ± 4.8e-05 kPa

NNC(=O)c1cccs1 [2-thiophenecarboxylic acid hydrazide]
Conditions	vapor or sublimation pressure
339.13 K	0.000108 ± 5e-06 kPa and 0.000109 ± 5e-06 kPa
341.18 K	0.000134 ± 7e-06 kPa and 0.000135 ± 7e-06 kPa
343.2 K	0.000171 ± 9e-06 kPa and 0.000169 ± 8e-06 kPa and 0.000164 ± 8e-06 kPa
345.13 K	0.000218 ± 1.1e-05 kPa and 0.000213 ± 1.1e-05 kPa and 0.000219 ± 1.1e-05 kPa
347.18 K	0.000273 ± 1.4e-05 kPa and 0.000274 ± 1.4e-05 kPa and 0.000262 ± 1.3e-05 kPa
349.19 K	0.00033 ± 1.7e-05 kPa and 0.00034 ± 1.7e-05 kPa and 0.000323 ± 1.6e-05 kPa
351.13 K	0.000414 ± 2.1e-05 kPa and 0.000423 ± 2.1e-05 kPa and 0.000404 ± 2e-05 kPa
353.18 K	0.000519 ± 2.6e-05 kPa and 0.00052 ± 2.6e-05 kPa and 0.000497 ± 2.5e-05 kPa
355.19 K	0.000637 ± 3.2e-05 kPa and 0.000628 ± 3.1e-05 kPa and 0.000622 ± 3.1e-05 kPa
357.12 K	0.000786 ± 3.9e-05 kPa and 0.000787 ± 3.9e-05 kPa and 0.000763 ± 3.8e-05 kPa
359.15 K	0.000977 ± 4.9e-05 kPa and 0.000971 ± 4.9e-05 kPa and 0.000942 ± 4.7e-05 kPa
361.18 K	0.001194 ± 0.00012 kPa and 0.001173 ± 0.00012 kPa and 0.001154 ± 0.00012 kPa
